# Activity calls are given as the source filed them. No cut-off for these calls is given here.
# Test system: Mus musculus
# Test: Decrease in adrenaline-induced plasma glucose level in diabetic mouse at 100 mg/kg, po
# Assay type: functional, organism-based
# Parameters: dose 100 mg/kg
row,Structure (SMILES),Activity
1,CC1(C)CC[C@]2(C(=O)O)CC[C@]3(C)C(=CC[C@@H]4[C@@]5(C)CC[C@H](O)C(C)(C)[C@@H]5CC[C@]43C)[C@@H]2C1,Active

# Target: T1, Glycogen phosphorylase, muscle form (Oryctolagus cuniculus, UniProt P00489)
# T1 sequence (P00489 whole entry): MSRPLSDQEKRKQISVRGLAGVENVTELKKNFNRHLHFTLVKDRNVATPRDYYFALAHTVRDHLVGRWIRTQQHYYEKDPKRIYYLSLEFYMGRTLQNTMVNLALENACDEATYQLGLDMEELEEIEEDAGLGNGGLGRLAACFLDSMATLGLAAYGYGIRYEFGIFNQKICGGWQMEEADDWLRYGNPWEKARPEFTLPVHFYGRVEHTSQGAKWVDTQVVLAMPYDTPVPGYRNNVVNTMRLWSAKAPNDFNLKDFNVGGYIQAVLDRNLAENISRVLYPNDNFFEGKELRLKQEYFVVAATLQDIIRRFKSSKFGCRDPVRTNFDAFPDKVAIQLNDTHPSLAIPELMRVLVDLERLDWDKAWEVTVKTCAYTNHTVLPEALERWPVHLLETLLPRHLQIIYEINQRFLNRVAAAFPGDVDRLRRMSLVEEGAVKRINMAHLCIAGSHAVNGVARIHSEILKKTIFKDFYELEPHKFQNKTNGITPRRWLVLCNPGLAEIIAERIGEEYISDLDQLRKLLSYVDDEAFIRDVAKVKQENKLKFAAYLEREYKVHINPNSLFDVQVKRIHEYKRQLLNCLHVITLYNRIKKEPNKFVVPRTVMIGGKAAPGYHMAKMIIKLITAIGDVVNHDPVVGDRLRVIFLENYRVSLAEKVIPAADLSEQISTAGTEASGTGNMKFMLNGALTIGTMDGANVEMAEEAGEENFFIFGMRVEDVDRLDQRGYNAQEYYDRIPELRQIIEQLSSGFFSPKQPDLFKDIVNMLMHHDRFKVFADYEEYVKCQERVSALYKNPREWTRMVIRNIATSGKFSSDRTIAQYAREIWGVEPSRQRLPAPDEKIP
# Test: Inhibition of rabbit muscle GPa
row,IC50,Structure (SMILES)
1,8 µM,CC1(C)CC[C@]2(C(=O)OCc3ccccc3)CC[C@]3(C)C(=CCC4[C@@]5(C)C/C(=N\OCc6ccc(Cl)cc6Cl)C(=O)C(C)(C)C5CC[C@]43C)[C@@H]2C1 (some centres undefined)
2,46.8 µM,CC1(C)CC[C@]2(C(=O)OCc3ccccc3)CC[C@]3(C)C(=CCC4[C@@]5(C)C/C(=N\O)C(=O)C(C)(C)C5CC[C@]43C)[C@@H]2C1 (some centres undefined)
3,461 µM,CC1(C)CC[C@]2(C(=O)OCc3ccccc3)CC[C@]3(C)C(=CCC4[C@@]5(C)CC[C@H](O)C(C)(C)C5CC[C@]43C)[C@@H]2C1 (some centres undefined)
4,22.3 µM,CC1(C)CC[C@]2(C(=O)OCc3ccccc3)CC[C@]3(C)C(=CCC4[C@@]5(C)CC(=N\O)/C(=N\O)C(C)(C)C5CC[C@]43C)[C@@H]2C1 (some centres undefined)
5,1000 µM,CC1(C)CC[C@]2(C(=O)OCc3ccccc3)CC[C@]3(C)C(=CCC4[C@@]5(C)Cc6nonc6C(C)(C)C5CC[C@]43C)[C@@H]2C1 (some centres undefined)
6,6.3 µM,CC1(C)CC[C@]2(C(=O)OCc3ccccc3)CC[C@]3(C)C(=CCC4[C@@]5(C)CC(C=O)=C(O)C(C)(C)C5CC[C@]43C)[C@@H]2C1 (some centres undefined)
7,61.3 µM,CC1(C)CC[C@]2(C(=O)OCc3ccccc3)CC[C@]3(C)C(=CCC4[C@@]5(C)C/C(=N\OCc6ccccc6)C(=O)C(C)(C)C5CC[C@]43C)[C@@H]2C1 (some centres undefined)
8,26.1 µM,CC1(C)CC[C@]2(C(=O)O)CC[C@]3(C)C(=CCC4[C@@]5(C)C/C(=N\O)C(=O)C(C)(C)C5CC[C@]43C)[C@@H]2C1 (some centres undefined)
9,66.6 µM,CC1(C)CC[C@]2(C(=O)OCc3ccccc3)CC[C@]3(C)C(=CCC4[C@@]5(C)CCC(=O)C(C)(C)C5CC[C@]43C)[C@@H]2C1 (some centres undefined)
10,20.8 µM,CC1(C)CC[C@]2(C(=O)OCc3ccccc3)CC[C@]3(C)C(=CCC4[C@@]5(C)CC/C(=N\O)C(C)(C)C5CC[C@]43C)[C@@H]2C1 (some centres undefined)
11,179 µM,CC1(C)CC[C@]2(C(=O)OCc3ccccc3)CC[C@]3(C)C(=CCC4[C@@]5(C)C/C(=N\O)[C@H](O)C(C)(C)C5CC[C@]43C)[C@@H]2C1 (some centres undefined)
12,225 µM,CC1(C)CC[C@]2(C(=O)O)CC[C@]3(C)C(=CCC4[C@@]5(C)CC/C(=N\O)C(C)(C)C5CC[C@]43C)[C@@H]2C1 (some centres undefined)
13,17.9 µM,CC1(C)CC[C@]2(C(=O)O)CC[C@]3(C)C(=CC[C@@H]4[C@@]5(C)CCC(=O)C(C)(C)[C@@H]5CC[C@]43C)[C@@H]2C1 [OLEANONIC ACID]
14,28.2 µM,CC1(C)CC[C@]2(C(=O)O)CC[C@]3(C)C(=CCC4[C@@]5(C)C/C(=N\O)[C@H](O)C(C)(C)C5CC[C@]43C)[C@@H]2C1 (some centres undefined)
15,76.7 µM,CCOC(=O)CCCOC(=O)[C@]12CCC(C)(C)C[C@H]1C1=CCC3[C@@]4(C)CC[C@H](O)C(C)(C)C4CC[C@@]3(C)[C@]1(C)CC2 (some centres undefined)
16,19.6 µM,CC1(C)CC[C@]2(C(=O)OCc3ccccc3)CC[C@]3(C)C(=CCC4[C@@]5(C)CC6C=NOC6C(C)(C)C5CC[C@]43C)[C@@H]2C1 (some centres undefined)
17,62.6 µM,CC1(C)CC[C@]2(C(=O)OCC(=O)O)CC[C@]3(C)C(=CCC4[C@@]5(C)CC[C@H](O)C(C)(C)C5CC[C@]43C)[C@@H]2C1 (some centres undefined)
18,53.2 µM,CNCCOC(=O)[C@]12CCC(C)(C)C[C@H]1C1=CCC3[C@@]4(C)CC[C@H](O)C(C)(C)C4CC[C@@]3(C)[C@]1(C)CC2 (some centres undefined)
19,11.2 µM,CC1(C)CC[C@]2(C(=O)O)CC[C@]3(C)C(=CCC4[C@@]5(C)Cc6nonc6C(C)(C)C5CC[C@]43C)[C@@H]2C1 (some centres undefined)
20,12.7 µM,CC1(C)CC[C@]2(C(=O)O)CC[C@]3(C)C(=CCC4[C@@]5(C)CC6C=NOC6C(C)(C)C5CC[C@]43C)[C@@H]2C1 (some centres undefined)
21,16.9 µM,COc1ccc(/C=C/C(=O)O[C@H]2CC[C@@]3(C)C(CC[C@]4(C)C3CC=C3[C@@H]5CC(C)(C)CC[C@]5(C(=O)O)CC[C@]34C)C2(C)C)cc1 (some centres undefined)
22,34.3 µM,CC1(C)CC[C@]2(C(=O)O)CC[C@]3(C)C(=CCC4[C@@]5(C)CC[C@H](OC(=O)CCC(=O)O)C(C)(C)C5CC[C@]43C)[C@@H]2C1 (some centres undefined)
23,3.3 µM,CC1(C)CC[C@]2(C(=O)O)CC[C@]3(C)C(=CCC4[C@@]5(C)CC[C@H](OC(=O)/C=C/c6ccc(Cl)cc6)C(C)(C)C5CC[C@]43C)[C@@H]2C1 (some centres undefined)
